Data: patent publication US20130039956A1, “USE OF NITROCARBOXYLIC ACIDS FOR THE TREATMENT, DIAGNOSIS AND PROPHYLAXIS OF AGGRESSIVE HEALING PATTERNS” (priority 2010, published 2013)

Key:
adult rats = assay: Fibrogenesis after traumatic and thermal tissue damage in dermal wound healing in vivo; parameters: species or system rat; conditions: 100 micromol ethanolic solution on wound margins, 8 weeks, compared with native FA
From the text: In order to determine the effects of nitrated fatty acids on fibrogenesis in response to traumatic and thermal tissue damage, an in vivo rat model was investigated. Paravertebral scalpel incision (two on each side) of approximately 1 cm in length and a depth of 1 mm were made in 12 anesthetized adult rats (150-200 g) of either sex after disinfection. Bleeding was stopped by manual compression. The entire length of the wound margins of one incision at each side were additionally cauterized using a 3-mm ball electrode connected to a DRE ASG-120 electrosurgical generator. Wound margins of one side were then covered with a sterile ethanolic 0.9% saline solution, or with a sterile ethanolic solution of the fatty acids (100 micromol), or with a sterile ethanolic solution of the nitrated fatty acids (100 micromol) using a sterile brush. A 1×10 mm cotton string that was bathed in the ethanolic solution containing 0.9% saline, native fatty acid or nitrated fatty acids was placed upon the incision site that had been closed by manual adaptation. The adaptation result and the cotton strings were fixed by an adhesive film. The animals were housed and fed according to institutional standards. The wound films were carefully removed after 2 weeks. Animals were euthanized after 8 weeks. The skin wounds were harvested, including the epidermis, dermis, and subcutaneous loose tissue with the surrounding normal tissue. The removed tissues were fixed in formalin and then embedded in paraffin. The cutting plane was vertical to the longitudinal axis of the former incisions. Slices (4-6 μm) were stained with H&E and Masson trichrome staining to evaluate the amount and density of collagen.

[1] = system: human umbellical endothelial cells (HUVEC); assay: Adhesion, propagation and growth of endothelial cells on coated polystyrene films; assay type: cell-based; conditions: days 3, 7, 14, compared with native FA
Method: Polystyrene scaffolds were prepared and pretreated in the same manner as performed in example 1 by using the same nitrocarboxylic acids as listed in table 1. The film samples were placed in a culture dish containing a gel matrix, in which human umbellical endothelial cells (HUVEC) had been allowed to grow to confluence. The culture medium consisted of 5% FCS, which was replaced every 5 days. Cultivation was performed according to standard conditions. Films were evaluated at days 3, 7, and 14 after careful extraction from the culture dishes, rinsing with saline solution, and staining with methylene blue. Using a reflected light microscope, the films were immediately examined to evaluate the following: Propagation of cells to the film center, cell confluidity, multilayer formation, and cell shape.

fibroblasts = assay: Biofouling and cell adherence at prosthetic materials (dip-coated polymer films); assay type: cell-based; conditions: compared with native FA (control)
Method: Polymer scaffolds (polyurethane, polyvinylchloride, polylactate) which are used as implant materials were investigated. Solid and porous (pore sizes ranging from 50 to 150 micrometer) films of pure polymer scaffolds were cut into pieces (5×5 mm). After cleaning with NaOH and ethanol, they were dip-coated with native and nitrocarboxylic acids. Dip-coated pieces were suspended in a tube filled with argon and heated at 60° C. for 24 hours in the dark. Film pieces with and without coating were placed in a borosilicate glass tube that allowed fixation of two margins of the film pieces at the wall of the glass tube, thus, enabling a upright standing position in the center of the tube. Tubes were filled with various solutions for 12 hours. Solutions consisted of the following: 0.9% saline; 2% bovine albumin; 2% bovine albumin with addition of either fibronectin or laminin; and bovine serum. At the end of the exposure time, tubes were gently washed twice with 0.9% saline solution. One set of films was analyzed for protein absorption using a specific antibody staining method. An identically prepared set of films was further processed for cell cultures. A suspension containing preincubated fibroblasts in 1% FCS was added to the film-containing tubes. The tubes were tilted and adjusted in such a position so that the films were in a vertical orientation within the suspension. […] Tubes had two openings at the upper half (of the tilt tubes) that allowed free exchange of the atmosphere above the solution with the surrounding atmosphere. Sets were incubated at standard conditions for 24, 48, and 96 hours, respectively. Thereafter, films were carefully removed and rinsed with 0.9% saline solution. The cellularity and the shape of the cells on both sides of the films were evaluated after staining (Gimsa) using a reflected light microscope.

human dermal fibroblasts = assay: Extra cellular matrix production (collagen-1) in response to TGF-β2 in dermal fibroblasts; assay type: cell-based; conditions: 10 and 50 μmol, TGF-β2 25 ng/ml, 48 hours; compared with native FA
Method: In order to determine whether PPRA gamma stimulation due to nitrated fatty acids plays a role in the inventive inhibition of an aggressive healing pattern to an irritating stimulus, human dermal fibroblasts were investigated. A dominant-negative PPAR gamma mutant (L466A) cell clone was generated by polymerase chain reaction-based site-directed mutagenesis. Presence of PPAR gamma or absence was investigated using a PPAR gamma antibody reaction which was determined using an enhanced chemiluminescence detection system. Furthermore, one cell series was incubated with a selective irreversible PPAR gamma ligand (GW9662, 1 μmol), which effectively blocks PPAR gamma receptors.
Sequential cultivation of human dermal fibroblasts was performed in EMEM containing 5 mM glucose supplemented with 10% FCS under standard cultivation conditions. Cells were allowed to grow to confluence in a 96-well plate. Wild-type fibroblasts and PPAR gamma deficient fibroblasts were investigated by a set-up of 2×10 sample sets comprising: (1) blank control; (2) stimulation control; (3) preincubation with the PPAR gamma antagonist GW9662 (Cayman Chemical); (4) preincubation with the PPAR agonist troglitazone (25 μmol). In 2×4 sample sets, native fatty acids were added to the medium to achieve a final concentration of 10 and 50 μmol, respectively; in another 2×4 sets the nitrated fatty acids were added to the medium in the same concentration, while 2×2 sets served as controls. In 10 of the sets, TGF-β2 was added to the culture medium at a concentration of 25 ng/ml. Cultivation was continued for 48 hours and then processed in order to analyze collagen-1 as measured by enhanced chemiluminescence detection of immuncomplexes.

[2] = system: Human peripheral blood mononuclear cells (PBMCs); assay: Adhesion of serum proteins and monocyte activation induced by coated silicone; assay type: cell-based; conditions: dip-coated silicone, PBMCs 3 days; compared with native FA
Method: In order to determine the effect of coating implant materials with nitro fatty acids to reduce adsorption of adhesion molecules and monocyte activation, sterile silicone sheets were out in small pieces and coated with respective nirocarboxylic acid and the corresponding native fatty acids by dip coating. Uncoated silicone pieces served as controls. For each fatty acid two sets of silicone pieces were bathed in freshly drawn human serum for 1 hour at 37° C., and another two sets were bathed in saline solutions. One set of both coated and uncoated pieces was analyzed immediately for adhesion proteins and the other set was placed in 96-well plates after rinsing the silicone pieces. Human peripheral blood mononuclear cells (PBMCs), isolated from three healthy subjects, were added to each well. Wells were incubated for 3 days under standard conditions. Culture supernatants were assayed for IL-1beta, IL-6, IL-8, and chemoattractant protein 1 (MCP-1) levels at the start and end of experiments.
Before analyzing the silicone pieces for protein adsorption, they were bathed in saline for 5 minutes. Thereafter, one side was rinsed with saline as performed for both sides in the set used for culturing. There was marked adsorption of fibrinogen and […] C5b-9 on the uncoated silicone. […] No protein was found on the surface of the nitro fatty acid-coated sample that was rinsed, thus, indicating the weak adherence of serum proteins.
Further: key: 0: not superior to native FA (control); +: Superior to native FA; ++: superior to both; +++: outstanding effect.

SMILES	Relative effect on fibrogenesis (scar formation) in dermal wound healing (adult rats)	Relative differences: effect on adhesion, propagation and growth of endothelial cells [1]	Relative differences: effect on biofouling and cell adherence (fibroblasts)	Relative effect on collagen-1 production in response to TGF-β2 (human dermal fibroblasts)	Relative effect on serum protein adhesion and monocyte activation [2]
CCCCCC=CCC=C(CC=CCC=CCCCC(=O)O)[N+](=O)[O-] [compound 14, 11-nitro-5,8,11,14-eicosatrienoic acid]	+	+	+	+	+
CCCCCC/C=C(\CCCCCCCC(=O)O)[N+](=O)[O-] [compound 16, 9-nitro-9-trans-hexadecenoic acid]	+	+	++	0	0
CCCCCCCC/C=C(/CCCCCCCCCCCC(=O)O)[N+](=O)[O-] [compound 17, 13-nitro-cis-13-docosenoic acid]	+	0	+	+	+
CCCCC/C=C(/C/C=C\C/C=C(/C/C=C\CCCC(=O)O)[N+](=O)[O-])[N+](=O)[O-] [compound 18, 8,14-nitro-cis-5,8,11,14-eicosatetraenoic acid]	+	+	+	+	++
CCC=CCC=C(CC=CCC=CCC=CCC=C(CCC(=O)O)[N+](=O)[O-])[N+](=O)[O-] [compound 19, 4,16-nitro-docosahexaenoic acid]	+	+	+	+	+
CCCCCC=CCC=C(CC=CC/C=C\CCCC(=O)O)[N+](=O)[O-] [compound 22, 11-nitro-cis-5,8,11,14-eicosatetraenoic acid]	++	++	+	++	+
